PubChem BioAssay AID248 (DTP/NCI, 2004)
“And” between values parts separate entries of the source, which are not always exact repeats. Equal entries are not always repeated. Inconclusive results and toxic doses are left out. Rule as the data show it: active = T/C of 150% or more; inactive = T/C below 125%.

System: L1210 leukemia ip in BDF1 mice, survival T/C
Experiment: NCI In Vivo Anticancer Drug Screen. Data for tumor model L1210 Leukemia (intraperitoneal) in B6D2F1 (BDF1) mice
Settings: endpoint: mean survival time, higher = longer survival
In short: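 Mice bearing the transplanted tumor received compound or vehicle. Survival of the treated group was divided by that of the vehicle-treated control group to give the ratio.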

[1] = dose: 100.0 mg/kg/injection, schedule: Q04DX003 (ip), vehicle: saline with Tween-80
[2] = dose: 400.0 mg/kg/injection, schedule: Q04DX003 (ip), vehicle: saline with Tween-80
[3] = dose: 100.0 mg/kg/injection, schedule: Q04DX003 (ip), vehicle: Klucel (hydroxypropylcellulose) (HPC)
[4] = dose: 100.0 mg/kg/injection, schedule: Q04DX002 (ip), vehicle: saline with Tween-80
[5] = dose: 200.0 mg/kg/injection, schedule: Q04DX002 (ip), vehicle: saline with Tween-80
[6] = dose: 50.0 mg/kg/injection, schedule: Q01DX009 (ip), vehicle: saline
[7] = dose: 100.0 mg/kg/injection, schedule: Q01DX009 (ip), vehicle: saline
[8] = dose: 100.0 mg/kg/injection, schedule: Q04DX003 (ip), vehicle: saline
[9] = dose: 200.0 mg/kg/injection, schedule: Q04DX003 (ip), vehicle: saline
[10] = dose: 400.0 mg/kg/injection, schedule: Q04DX003 (ip), vehicle: saline
[11] = dose: 75.0 mg/kg/injection, schedule: Q04DX003 (ip), vehicle: saline
[12] = dose: 200.0 mg/kg/injection, schedule: Q04DX003 (ip), vehicle: Klucel (hydroxypropylcellulose) (HPC)
[13] = dose: 400.0 mg/kg/injection, schedule: Q04DX003 (ip), vehicle: Klucel (hydroxypropylcellulose) (HPC)

Measured: T/C

CCOC(=O)N=C=O
inactive: dose: 100.0 mg/kg/injection, schedule: Q01DX009 (ip), vehicle: water 103 % of control | dose: 100.0 mg/kg/injection, schedule: Q04DX003 (ip), vehicle: water 95 % of control | dose: 200.0 mg/kg/injection, schedule: Q01DX009 (ip), vehicle: water 100 % of control | dose: 200.0 mg/kg/injection, schedule: Q04DX003 (ip), vehicle: water 101 % of control | dose: 400.0 mg/kg/injection, schedule: Q04DX003 (ip), vehicle: water 101 % of control

c1ccc(P(=NC2CCCC2)(c2ccccc2)c2ccccc2)cc1
inactive: [1] 89 % of control | dose: 200.0 mg/kg/injection, schedule: Q04DX003 (ip), vehicle: saline with Tween-80 92 % of control | [2] 87 % of control

Cc1cccc(NC(=O)N(C)N)c1
inactive: dose: 75.0 mg/kg/injection, schedule: Q01DX001 (ip), vehicle: carboxymethylcellulose (CMC) 96 % of control | dose: 150.0 mg/kg/injection, schedule: Q01DX001 (ip), vehicle: carboxymethylcellulose (CMC) 104 % of control

CCCCCCCCCCCCNC(=O)c1ccc[n+](C)c1
inactive: dose: 6.25 mg/kg/injection, schedule: Q01DX009 (ip), vehicle: acetone 95 % of control | dose: 6.25 mg/kg/injection, schedule: Q04DX003 (ip), vehicle: saline 91 % of control | dose: 12.5 mg/kg/injection, schedule: Q01DX001 (ip), vehicle: saline 105 % of control | dose: 12.5 mg/kg/injection, schedule: Q01DX009 (ip), vehicle: acetone 98 % of control | dose: 12.5 mg/kg/injection, schedule: Q04DX003 (ip), vehicle: saline 92 % of control and 103 % of control | dose: 25.0 mg/kg/injection, schedule: Q01DX001 (ip), vehicle: saline 104 % of control | dose: 25.0 mg/kg/injection, schedule: Q01DX009 (ip), vehicle: acetone 95 % of control | dose: 25.0 mg/kg/injection, schedule: Q04DX003 (ip), vehicle: saline 94 % of control and 91 % of control | dose: 50.0 mg/kg/injection, schedule: Q04DX003 (ip), vehicle: saline 96 % of control

O=C(N1CCCCC1)N1CCCCC1
inactive: dose: 100.0 mg/kg/injection, schedule: Q04DX002 (ip), vehicle: other 105 % of control | dose: 200.0 mg/kg/injection, schedule: Q04DX002 (ip), vehicle: other 91 % of control | dose: 400.0 mg/kg/injection, schedule: Q04DX002 (ip), vehicle: other 88 % of control

CCCC(=O)OC(OC(=O)CCC)c1cccc(OC(=O)CC)c1
inactive: dose: 222.0 mg/kg/injection, schedule: Q01DX Z (ip), vehicle: methylcellulose (MC) 96 % of control | dose: 333.0 mg/kg/injection, schedule: Q01DX Z (ip), vehicle: methylcellulose (MC) 104 % of control | dose: 500.0 mg/kg/injection, schedule: Q01DX Z (ip), vehicle: methylcellulose (MC) 105 % of control

CCC(CC)(C(=O)O)C(=O)O
inactive: dose: 25.0 mg/kg/injection, schedule: Q04DX003 (ip), vehicle: Klucel (hydroxypropylcellulose) (HPC) 93 % of control | dose: 50.0 mg/kg/injection, schedule: Q04DX003 (ip), vehicle: Klucel (hydroxypropylcellulose) (HPC) 90 % of control | [3] 96 % of control and 88 % of control

c1ccc(COc2ccc(Cc3nccc4ccccc34)cc2OCc2ccccc2)cc1
inactive: [1] 88 % of control | [2] 88 % of control

CN(C)Cc1c(O)ccc2ccccc12
inactive: [4] 100 % of control | [5] 90 % of control

COc1cc2c(cc1O)CN(CCC(C)=O)CC2O (centres undefined)
inactive: dose: 25.0 mg/kg/injection, schedule: Q01DX009 (ip), vehicle: saline 101 % of control | [6] 93 % of control | [7] 86 % of control

Cc1cc(N)ccc1/C=C/C(=O)O
inactive: [8] 97 % of control | [9] 98 % of control | [10] 93 % of control

Cc1cc(C)c2c(c1)CC2NC(=O)Cc1ccccc1 (centres undefined)
inactive: dose: 25.0 mg/kg/injection, schedule: Q04DX002 (ip), vehicle: Klucel (hydroxypropylcellulose) (HPC) 116 % of control | dose: 50.0 mg/kg/injection, schedule: Q04DX002 (ip), vehicle: Klucel (hydroxypropylcellulose) (HPC) 89 % of control | dose: 100.0 mg/kg/injection, schedule: Q04DX002 (ip), vehicle: Klucel (hydroxypropylcellulose) (HPC) 92 % of control

O=C(Nc1ccccc1)C(Cl)S(=O)(=O)O (centres undefined)
inactive: dose: 100.0 mg/kg/injection, schedule: Q01DX001 (ip), vehicle: saline with Tween-80 97 % of control | dose: 200.0 mg/kg/injection, schedule: Q01DX001 (ip), vehicle: saline with Tween-80 97 % of control

Oc1ccc2c(c1)CCCC2
inactive: [11] 102 % of control

CCN(C(=O)Nc1ccccc1F)c1cc(OC)ccc1C
inactive: dose: 50.0 mg/kg/injection, schedule: Q01DX009 (ip), vehicle: saline with Tween-80 91 % of control | dose: 100.0 mg/kg/injection, schedule: Q01DX009 (ip), vehicle: saline with Tween-80 86 % of control

CC1CCC(C(=O)O)(C(=O)NC(N)=O)CC1C (centres undefined)
inactive: dose: 100.0 mg/kg/injection, schedule: Q01DX001 (ip), vehicle: steriod suspending solution 93 % of control | dose: 200.0 mg/kg/injection, schedule: Q01DX001 (ip), vehicle: steriod suspending solution 110 % of control | dose: 400.0 mg/kg/injection, schedule: Q01DX001 (ip), vehicle: steriod suspending solution 114 % of control

CCCCCCOC(=O)Nc1ccc(S(=O)(=O)N(C)C)cc1
inactive: dose: 100.0 mg/kg/injection, schedule: Q01DX001 (ip), vehicle: saline 103 % of control | dose: 200.0 mg/kg/injection, schedule: Q01DX001 (ip), vehicle: saline 108 % of control | dose: 400.0 mg/kg/injection, schedule: Q01DX001 (ip), vehicle: saline 102 % of control

O=C(Nc1cccc(Cl)c1)Oc1ccc(S(=O)(=O)F)cc1Cl
inactive: [4] 94 % of control | [5] 91 % of control

C(=N/OC(c1ccccc1)(c1ccccc1)c1ccccc1)/c1ccccc1
inactive: [6] 98 % of control | [11] 92 % of control | [7] 104 % of control | [3] 101 % of control | [8] 95 % of control | dose: 150.0 mg/kg/injection, schedule: Q04DX003 (ip), vehicle: saline 94 % of control | dose: 200.0 mg/kg/injection, schedule: Q01DX009 (ip), vehicle: saline 98 % of control | [12] 103 % of control | [9] 95 % of control | dose: 300.0 mg/kg/injection, schedule: Q04DX003 (ip), vehicle: saline 89 % of control | [13] 101 % of control | [10] 95 % of control

CCCCC(=O)N/N=C\c1ccc(C(=O)O)cc1
inactive: dose: 100.0 mg/kg/injection, schedule: Q01DX001 (ip), vehicle: carboxymethylcellulose (CMC) 96 % of control | dose: 200.0 mg/kg/injection, schedule: Q01DX001 (ip), vehicle: carboxymethylcellulose (CMC) 100 % of control | dose: 400.0 mg/kg/injection, schedule: Q01DX001 (ip), vehicle: carboxymethylcellulose (CMC) 110 % of control

CCCCNS(=O)(=O)c1ccc(N)cc1
inactive: dose: 100.0 mg/kg/injection, schedule: Q01DX009 (ip), vehicle: saline sonified 102 % of control | [3] 98 % of control | dose: 200.0 mg/kg/injection, schedule: Q01DX009 (ip), vehicle: saline sonified 102 % of control | [12] 109 % of control | dose: 400.0 mg/kg/injection, schedule: Q01DX009 (ip), vehicle: saline sonified 98 % of control | [13] 117 % of control

O=C(COc1ccc(Cl)c(Cl)c1)Nc1ccc[n+](Cc2ccc(S(=O)(=O)F)c(Cl)c2)c1
inactive: [3] 98 % of control | [12] 93 % of control | [13] 97 % of control

CCCCCCCCOC(=O)CCC(N)C(=O)O (centres undefined)
inactive: dose: 100.0 mg/kg/injection, schedule: Q01DX001 (ip), vehicle: Klucel (hydroxypropylcellulose) (HPC) 107 % of control | dose: 100.0 mg/kg/injection, schedule: Q01DX009 (ip), vehicle: Klucel (hydroxypropylcellulose) (HPC) 93 % of control | dose: 200.0 mg/kg/injection, schedule: Q01DX001 (ip), vehicle: Klucel (hydroxypropylcellulose) (HPC) 102 % of control | dose: 200.0 mg/kg/injection, schedule: Q01DX009 (ip), vehicle: Klucel (hydroxypropylcellulose) (HPC) 97 % of control | dose: 400.0 mg/kg/injection, schedule: Q01DX001 (ip), vehicle: Klucel (hydroxypropylcellulose) (HPC) 98 % of control | dose: 400.0 mg/kg/injection, schedule: Q01DX009 (ip), vehicle: Klucel (hydroxypropylcellulose) (HPC) 97 % of control
